According to patent publication US10555987B2, “GHRH agonists for the treatment of ischemic disorders” (UNIVERSITY OF MIAMI, priority 2012, dated 2020):
Marks after values point to notes of the source that are not given here. Non-standard residues stand in square brackets, D forms with d. Residues, ends and D or L forms follow the SMILES beside them. Phe(F5) = N[C@@H](Cc1c(F)c(F)c(F)c(F)c1F)C(=O)O; NMeY = CN[C@@H](Cc1ccc(O)cc1)C(=O)O; Nle = CCCC[C@H](N)C(=O)O; Orn = NCCC[C@H](N)C(=O)O; Abu = CC[C@H](N)C(=O)O

Columns and labels:
[1] = tested on: GH release; assay: GH releasing potency in vivo, subcutaneous administration (Example 14, Table 12); design: species or system rat; conditions: s.c.; for Serum GH level at selected time after injection (ng/ml), 0 min / Serum GH level at selected time after injection (ng/ml), 15 min / Serum GH level at selected time after injection (ng/ml), 30 min: male rats, dose 3 μg/kg, mean ± SEM
Summary of the method: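 Potency is expressed relative to GHRH(1-29)NH2 and JI-38 (each = 1), via equivalent GHRH(1-29)NH2 dose read from a standard curve. Peptides in 5% mannitol given i.v. or s.c. to anaesthetised male Sprague-Dawley rats (200-250 g); serum GH measured by ELISA at selected times.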

[2] = molecular target: T1, GHRH receptor (Homo sapiens, UniProt Q02643); assay: GHRH receptor binding, competition with 125I-labeled JV-1-42, human pituitary membrane homogenates (Table 7); design: Normal human pituitaries were purchased from the National Hormone and Peptide Program; tissue National Hormone and Peptide Program (A.F. Parlow, Harbor-UCLA Medical Center, Torrance, Calif.); host or cells: normal human pituitary, membrane fraction; conditions: JI-38 = 1, Table 7
T1 sequence (Q02643 23-423): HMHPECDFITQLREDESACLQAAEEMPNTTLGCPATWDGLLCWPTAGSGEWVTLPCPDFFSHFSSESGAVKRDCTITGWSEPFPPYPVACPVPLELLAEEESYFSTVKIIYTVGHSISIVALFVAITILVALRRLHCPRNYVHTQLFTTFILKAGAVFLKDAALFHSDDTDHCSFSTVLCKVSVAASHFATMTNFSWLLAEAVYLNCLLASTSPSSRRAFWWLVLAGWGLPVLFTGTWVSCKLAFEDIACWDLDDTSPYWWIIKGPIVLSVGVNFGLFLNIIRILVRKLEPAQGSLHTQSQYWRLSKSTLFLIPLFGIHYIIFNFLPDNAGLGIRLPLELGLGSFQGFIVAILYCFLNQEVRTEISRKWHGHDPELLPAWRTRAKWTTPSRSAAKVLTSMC
From the text: Normal human pituitaries were purchased from the National Hormone and Peptide Program (A.F. Parlow, Los Angeles, County Harbor-UCLA Medical Center, Torrance, Calif.).

[3] = tested on: myocardial infarction (Fisher-344 rats); assay: Serial echocardiography after MI, compared to JI-38 (Example 15, Table 15); format: in vivo, rat; design: key to LVEDD: Left Ventricular End Diastolic Diameter / LVESD: Left Ventricular End Systolic Diameter / VD: Ventricular Diastole / VS: Ventricular Systole / EF: Ejection Fraction / FS: Fraction Shortening: ↓: downward arrow denotes lower than JI-38; ↑: upward arrow denotes greater than JI-38; =denotes same as JI-38; ⬇⬇: double arrow denotes greater effect; ⬆⬆: double arrow denotes greater effect; conditions: for EF: Ejection Fraction / FS: Fraction Shortening / LVEDD: Left Ventricular End Diastolic Diameter / LVESD: Left Ventricular End Systolic Diameter / VD: Ventricular Diastole / VS: Ventricular Systole: in comparison to JI-38
Summary of the method: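 Female 6-month-old Fisher-344 rats with permanent left coronary artery ligation received placebo, JI-38 or GHRH agonists subcutaneously twice daily from 2 h post-surgery (10 per group). Under 2% isoflurane, M-mode LVEDD, LVESD and FS plus long-axis EF were measured at baseline, 2 days, 1, 2 and 4 weeks.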

[4] = molecular target: T1, GHRH receptor; assay: Receptor binding in vitro, 125I-labeled [His1,Nle27]-hGHRH(1-32)NH2, membrane receptors of human anterior pituitary cells (Table 14); conditions: for Relative affinity (Binding potency) compared to JI-38: JI-38 = 1; for Relative affinity (Binding potency) compared to hGHRH(1-29): hGHRH(1-29)NH2 = 1

Row | Relative affinity (Binding potency) vs JI-38 [2] | Relative affinity (Binding potency) compared to JI-38 [4] | Relative affinity (Binding potency) compared to hGHRH(1-29) [4] | Compound | Serum GH level at selected time after injection (ng/ml), 0 min [1] | Serum GH level at selected time after injection (ng/ml), 15 min [1] | Serum GH level at selected time after injection (ng/ml), 30 min ([1]; 30 min) | Relative potency compared to GHRH(1-29), 15 min [1] | Relative potency compared to JI-38, 15 min [1] | Relative potency compared to GHRH(1-29), 30 min ([1]; 30 min) | Relative potency compared to JI-38, 30 min ([1]; 30 min) | EF: Ejection Fraction [3] | FS: Fraction Shortening [3] | LVEDD: Left Ventricular End Diastolic Diameter [3] | LVESD: Left Ventricular End Systolic Diameter [3] | VD: Ventricular Diastole [3] | VS: Ventricular Systole [3] | GH-releasing potency after s.c. administration (in words) [1] | cardiac dimensions (LVEDD and LVESD) ([3]; after MI) | cardiac performance (EF and FS) ([3]; after MI)
1 | 5.00 | 2.45 | 6.83 | CCCC[C@H](NC(=O)[C@@H](NC(=O)[C@H](CC(=O)O)NC(=O)[C@H](CCC(N)=O)NC(=O)[C@H](CC(C)C)NC(=O)[C@H](CC(C)C)NC(=O)[C@H](CCCN)NC(=O)[C@H](CCCNC(=N)N)NC(=O)[C@H](C)NC(=O)[C@H](CO)NC(=O)[C@H](CC(C)C)NC(=O)[C@H](CCC(N)=O)NC(=O)[C@H](CC)NC(=O)[C@H](CC(C)C)NC(=O)[C@@H](NC(=O)[C@H](CCCN)NC(=O)[C@H](CCCNC(=N)N)NC(=O)[C@H](Cc1ccc(O)cc1)NC(=O)[C@H](CO)NC(=O)[C@H](CCC(N)=O)NC(=O)[C@@H](NC(=O)[C@H](Cc1c(F)c(F)c(F)c(F)c1F)NC(=O)[C@@H](NC(=O)[C@H](C)NC(=O)[C@H](CC(=O)O)NC(=O)[C@@H](C)NC(=O)[C@H](Cc1ccc(O)cc1)NC)[C@@H](C)CC)[C@@H](C)O)C(C)C)[C@@H](C)CC)C(=O)N[C@@H](CC(=O)O)C(=O)N[C@@H](CCCNC(=N)N)C(=O)NC [Peptide P-27404, [N—Me-Tyr^1, D-Ala^2, Fpa5^6, Orn^12, Abu^15, Orn^21, Nle^27, Asp^28]hGHRH (1-29)NH—CH3] (H-[NMeY][dA]DAI[Phe(F5)]TQSYR[Orn]VL[Abu]QLSAR[Orn]LLQDI[Nle]DR-NHMe) | 29.5 ± 3.2 ng/mL | 320.5 ± 32.7 ng/mL | 151 ± 28.5 ng/mL | 97.1 | 1.54 | 148.4 | 1.33 | = | = | ↑ | = | ↑ | ↑ | – | – | –
2 | 4.10 | 2.71 | 7.57 | CCCC[C@H](NC(=O)[C@@H](NC(=O)[C@H](CC(=O)O)NC(=O)[C@H](CCC(N)=O)NC(=O)[C@H](CC(C)C)NC(=O)[C@H](CC(C)C)NC(=O)[C@H](CCCN)NC(=O)[C@H](CCCNC(=N)N)NC(=O)[C@H](C)NC(=O)[C@H](CO)NC(=O)[C@H](CC(C)C)NC(=O)[C@H](CCC(N)=O)NC(=O)[C@H](CC)NC(=O)[C@H](CC(C)C)NC(=O)[C@@H](NC(=O)[C@H](CCCN)NC(=O)[C@H](CCCNC(=N)N)NC(=O)[C@H](Cc1ccc(O)cc1)NC(=O)[C@H](CO)NC(=O)[C@H](CC(N)=O)NC(=O)[C@@H](NC(=O)[C@H](Cc1ccccc1)NC(=O)[C@@H](NC(=O)[C@H](C)NC(=O)[C@H](CC(=O)O)NC(=O)[C@@H](C)NC(=O)[C@H](Cc1ccc(O)cc1)NC)[C@@H](C)CC)[C@@H](C)O)C(C)C)[C@@H](C)CC)C(=O)N[C@@H](CC(=O)O)C(=O)N[C@@H](CCCNC(=N)N)C(=O)NC [Peptide P-27409, [N—Me-Tyr^1, D-Ala^2, Orn^12, Abu^15, Orn^21, Nle^27, Asp^28]hGHRH(1-29)NH—CH3] (H-[NMeY][dA]DAIFTNSYR[Orn]VL[Abu]QLSAR[Orn]LLQDI[Nle]DR-NHMe) | 18.9 ± 3.1 ng/mL | 427.4 ± 62.4 ng/mL | 256.7 ± 20.7 ng/mL | 141.3 | 2.24* | 380.6 | – | ⬆⬆ | ⬆⬆ | ⬇⬇ | ⬇⬇ | = | = | significantly higher potencies at 30 minutes than at 15 minutes | reduced cardiac dimensions | substantial improvement on cardiac performance
